Assay results reported in PMC10480608 (Heliyon, 2023).
Where two headings read alike, the source gives them in different places.

Columns and labels:
[1] = system: MCF-7 (human breast adenocarcinoma); experiment: MTT cytotoxicity assay, MCF-7; type: cell-based; conditions: read-out: IC50 ± SD, MCF7
[2] = system: normal human dermal/fibroblasts; experiment: MTT cytotoxicity assay, normal fibroblasts; type: cell-based; conditions: read-out: IC50 ± SD, Fibro dental, 72 h
[3] = system: DU145 prostate cancer cells; experiment: MTT cytotoxicity assay, DU145; type: cell-based, human
[4] = system: MDA-231 breast cancer cells; experiment: MTT cytotoxicity assay, MDA-231; type: cell-based, human
[5] = system: HepG2 (hepatocellular carcinoma); experiment: MTT cytotoxicity assay, HepG2; type: cell-based, human; conditions: read-out: IC50 ± SD, HEPG-2
[6] = system: MCF-7 cell lines; experiment: Dose response study, growth rate; type: cell-based, human; conditions: MCF-7, treatment for 24 h, tested 1–300 μg/mL
[7] = system: PC3 (human prostate carcinoma); experiment: MTT cytotoxicity assay, PC3; type: cell-based; conditions: 72 h, read-out: IC50 ± SD, PC-3
[8] = Homo sapiens, DU-145, read-out: IC50 ± SD, DU145
[9] = Homo sapiens, MDA-MB-231, read-out: IC50 ± SD, MDA-231

## N.N.[Cl][Pt][Cl] [Cisplatin, reference compound]
[1]; Breast cancer cells, MTT, 72 h, mean ± SD
  IC50: 14.6 ± 2.8 µM
[2]; Normal cells, MTT, mean ± SD
  IC50: > 100 µM
[3]; read-out: IC50 ± SD, DU145, Prostate cancer cells, MTT, mean ± SD
  IC50: 8.5 ± 1.7 µM
[4]; read-out: IC50 ± SD, MDA-231, Breast cancer cells, MTT, mean ± SD
  IC50: 16.2 ± 1.6 µM
[5]; Liver cancer cells, MTT, 72 h, mean ± SD
  IC50: 9.64 ± 1.7 µM

## Cc1nc([N+](=O)[O-])c(N2CCN(Cc3cn(Cc4cccc(F)c4)nn3)CC2)n1Cc1ccccc1 [Compound 9g, 1-(N1-benzyl-2-methyl-4-nitro-imidazole-5-yl)-4-((N1-(3-fluorobenzyl)-1H-1,2,3-triazol-4-yl)methyl)piperazine]
[1]; Homo sapiens, MCF7, 72 h
  IC50: 2 ± 0.03 µM
[2]; Homo sapiens, Fibroblast
  IC50: > 500 µM
[6]
  concentration range with cytostatic effect (GR values): 1 to 300 µg/mL
  concentration range with cytotoxic effect (GR values): did not show cytotoxic effects

## Cc1ccc(Cn2cc(CN3CCN(c4c([N+](=O)[O-])nc(C)n4Cc4ccccc4)CC3)nn2)cc1 [Compound 9k, 1-(N1-benzyl-2-methyl-4-nitro-imidazole-5-yl)-4-((N1-(4-methylbenzyl)-1H-1,2,3-triazol-4-yl)methyl)piperazine]
[1]; Homo sapiens, MCF7, 72 h
  IC50: 5 ± 2 µM
[2]; Homo sapiens, Fibroblast
  IC50: > 500 µM
[6]
  concentration range with cytostatic effect (GR values): 37.5 to 1 μg/mL
  concentration range with cytotoxic effect (GR values): 75 to 300 µg/mL

## Cc1nc([N+](=O)[O-])c(N2CCN(Cc3cn(CC(=O)c4ccc(Br)cc4)nn3)CC2)n1Cc1ccccc1 [Compound 10b, 2-(4-((4-(1-benzyl-2-methyl-4-nitro-1H-imidazole-5-yl)piperazin-1-yl)methyl)-1H-1,2,3-triazol-1-yl)-1-(4-bromophenyl)ethanone]
[1]; Homo sapiens, MCF7, 72 h
  IC50: 372 ± 30 µM
[3]; [8]
  IC50: 8.95 ± 1.7 µM
[4]; [9]
  IC50: 1.33 ± 0.9 µM

## COc1cccc(C(=O)Cn2cc(CN3CCN(c4c([N+](=O)[O-])nc(C)n4Cc4ccccc4)CC3)nn2)c1 [Compound 10c, 2-(4-((4-(1-benzyl-2-methyl-4-nitro-1H-imidazole-5-yl)piperazin-1-yl)methyl)-1H-1,2,3-triazol-1-yl)-1-(3-methoxyphenyl)ethanone]
[1]; Homo sapiens, MCF7, 72 h
  IC50: 585 ± 37 µM
[2]; Homo sapiens, Fibroblast
  IC50: > 500 µM
[3]; [8]
  IC50: 15 ± 1.6 µM
[4]; [9]
  IC50: 1.38 ± 1.3 µM

## Cc1nc([N+](=O)[O-])c(N2CCN(Cc3cn(-c4ccc5c(c4)OCO5)nn3)CC2)n1Cc1ccccc1 [Compound 11p, 1-((N1-(benzo[d] [1,3]dioxol-5-yl)-1H-1,2,3-triazol-4-yl)methyl)-4-(N1-benzyl-2-methyl-4-nitro-1H-imidazole-5-yl) piperazine]
[1]; Homo sapiens, MCF7, 72 h
  IC50: 52 ± 30 µM
[3]; [8]
  IC50: 0.803 ± 0.04 µM
[4]; [9]
  IC50: 11.7 ± 1.6 µM

## COc1cccc2c1C(=O)c1c(O)c3c(c(O)c1C2=O)C[C@@](O)(C(=O)CO)C[C@@H]3O[C@H]1C[C@H](N)[C@H](O)[C@H](C)O1 [Doxorubicin, reference compound]
[7]
  IC50: 0.62 ± 0.06 µM
[1]; Homo sapiens, MCF7, 72 h
  IC50: 0.64 ± 0.04 µM
[2]; Homo sapiens, Fibroblast
  IC50: > 100 µM
[3]; [8]
  IC50: 0.66 ± 0.04 µM
[4]; [9]
  IC50: 2.3 ± 1.3 µM
[5]; Homo sapiens, HepG2, 72 h
  IC50: 0.61 ± 0.05 µM
